According to patent US11466286B2, “Methods and compositions for conferring and/or enhancing herbicide tolerance using protoporphyrinogen oxidase or variant thereof” (FarmHannong Co., Ltd., priority 2016, dated 2022):

Assays:
[1] = biological target: CyPPO10 (Thermosynechococcus elongatus BP-1 PPO, SEQ ID NO: 2) variant R89A + F360I, MBP fusion (Thermosynechococcus vestitus, UniProt Q8DLV2, F360I/R89A); experiment: biochemical
[2] = biological target: CyPPO10 (Thermosynechococcus elongatus BP-1 PPO, SEQ ID NO: 2) variant F360M, MBP fusion (Thermosynechococcus vestitus, UniProt Q8DLV2, F360M); experiment: biochemical
[3] = tested on: CyPPO13 (Synechococcus sp. JA-3-3Ab PPO, SEQ ID NO: 4), wild type, MBP fusion; experiment: PPO inhibition assay; type: biochemical; conditions: herbicide 0-5,000 nM, 50 μM substrate
[4] = biological target: CyPPO10 (Thermosynechococcus elongatus BP-1 PPO, SEQ ID NO: 2) variant F360I, MBP fusion (Thermosynechococcus vestitus, UniProt Q8DLV2, F360I); experiment: PPO inhibition assay; type: biochemical
[5] = biological target: CyPPO10 (Thermosynechococcus elongatus BP-1 PPO, SEQ ID NO: 2) variant R89A + F360M, MBP fusion (Thermosynechococcus vestitus, UniProt Q8DLV2, F360M/R89A); experiment: biochemical; conditions: herbicide 0-5,000 nM, 50 μM substrate
[6] = biological target: CyPPO10 (Thermosynechococcus elongatus BP-1 PPO, SEQ ID NO: 2), wild type, MBP fusion (Thermosynechococcus vestitus, UniProt Q8DLV2); experiment: PPO inhibition assay; type: biochemical
[7] = biological target: T1, CyPPO10 (Thermosynechococcus elongatus BP-1 protoporphyrinogen oxidase, wild type, SEQ ID NO: 2), MBP fusion (Thermosynechococcus vestitus, UniProt Q8DLV2); experiment: Michaelis-Menten kinetics of purified PPO; type: biochemical; conditions: protoporphyrinogen IX oxidation, room temperature, pH 8.0
T1 construct: kinetics with protoporphyrinogen IX
Description: The enzyme activities of PPO protein and PPO protein variants were examined, and inhibition assay by PPO-inhibiting herbicides was conducted. It was confirmed that the PPO protein has low water-solubility, but in case of being expressed as a fusion protein with MBP (maltose binding protein) (MBP-PPO), the PPO protein is able to be stably expressed as water-soluble form. Therefore, the wild type and variant proteins which were expressed in the form of fusion protein with MBP were used in the present test (refer to FIG. 4).
At first, a substrate of PPO protein, Protoporphyrinogen IX was synthesized. This process was performed in the space where nitrogen gas is streamed. […]
Two hundred microliters (200 μl) of reaction mixture containing a purified PPO protein were placed in 96 well plates, and preincubated for 30 min at room temperature to reduce the oxygen concentration by the reaction of glucose oxidase-catalase. […] The reaction proceeded at room temperature for 30 min and the fluorescence of protoporphyrin IX was measured using Microplate reader (Sense, Hidex) (excitation: 405 nm; emission: 633 nm). […] To this, 2.7N HCl was added, and the absorbance at 408 nm was measured. A standard curve was generated using standard protoporphyrin IX, and the PPO activity was measured by calibration of protoporphyrin IX using the standard curve of protoporphyrin IX. […]

[8] = biological target: A. thaliana PPO1 (AtPPO1) (Arabidopsis thaliana, UniProt P55826); experiment: Michaelis-Menten kinetics of PPO (plant control); type: biochemical; conditions: protoporphyrinogen IX oxidation
[9] = tested on: CyPPO13 (Synechococcus sp. JA-3-3Ab protoporphyrinogen oxidase, wild type, SEQ ID NO: 4), MBP fusion; experiment: Michaelis-Menten kinetics of purified PPO; type: biochemical; conditions: protoporphyrinogen IX oxidation, room temperature, pH 8.0
[10] = tested on: Amaranthus PPO1; experiment: Michaelis-Menten kinetics of PPO (plant control); type: biochemical; conditions: protoporphyrinogen IX oxidation

Sequence of CyPPO10 (Thermosynechococcus elongatus BP-1 PPO, SEQ ID NO: 2) variant F360M, MBP fusion (Q8DLV2 entry or part of it F360M): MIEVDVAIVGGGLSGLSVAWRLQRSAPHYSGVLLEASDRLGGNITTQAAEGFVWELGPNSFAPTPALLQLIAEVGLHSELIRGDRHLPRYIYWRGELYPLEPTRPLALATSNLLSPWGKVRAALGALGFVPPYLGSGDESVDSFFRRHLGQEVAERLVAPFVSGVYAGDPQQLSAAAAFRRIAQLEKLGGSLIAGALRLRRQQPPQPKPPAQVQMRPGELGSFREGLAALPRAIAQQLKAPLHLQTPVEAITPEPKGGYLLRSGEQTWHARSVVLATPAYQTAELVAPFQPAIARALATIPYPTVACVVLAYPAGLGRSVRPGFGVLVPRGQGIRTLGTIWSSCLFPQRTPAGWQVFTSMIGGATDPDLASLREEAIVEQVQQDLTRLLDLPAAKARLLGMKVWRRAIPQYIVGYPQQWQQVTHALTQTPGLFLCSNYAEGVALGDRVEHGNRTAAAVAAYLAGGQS
Sequence of CyPPO10 (Thermosynechococcus elongatus BP-1 PPO, SEQ ID NO: 2) variant R89A + F360I, MBP fusion (Q8DLV2 entry or part of it R89A/F360I): as the sequence (Q8DLV2 entry or part of it F360M) above, with R89A, M360I counted along it
Sequence of A. thaliana PPO1 (AtPPO1) (P55826 35-537): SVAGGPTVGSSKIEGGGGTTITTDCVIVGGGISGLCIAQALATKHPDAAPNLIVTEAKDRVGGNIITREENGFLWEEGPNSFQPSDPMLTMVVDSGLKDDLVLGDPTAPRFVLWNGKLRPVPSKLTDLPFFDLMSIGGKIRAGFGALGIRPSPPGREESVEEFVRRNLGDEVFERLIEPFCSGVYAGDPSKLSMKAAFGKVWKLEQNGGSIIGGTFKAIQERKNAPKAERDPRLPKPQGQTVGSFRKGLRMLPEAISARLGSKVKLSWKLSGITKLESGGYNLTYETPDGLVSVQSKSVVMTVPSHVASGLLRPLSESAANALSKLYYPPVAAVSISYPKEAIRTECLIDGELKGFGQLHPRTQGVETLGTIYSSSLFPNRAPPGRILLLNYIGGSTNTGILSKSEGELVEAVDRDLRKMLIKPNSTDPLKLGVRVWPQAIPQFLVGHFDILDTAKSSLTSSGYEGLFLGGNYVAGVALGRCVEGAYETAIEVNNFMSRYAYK
Sequence of CyPPO10 (Thermosynechococcus elongatus BP-1 PPO, SEQ ID NO: 2) variant R89A + F360M, MBP fusion (Q8DLV2 entry or part of it R89A/F360M): as the sequence (Q8DLV2 entry or part of it F360M) above, with R89A counted along it
T1 sequence (Q8DLV2 1-467): as the sequence (Q8DLV2 entry or part of it F360M) above, with M360F counted along it
Sequence of CyPPO10 (Thermosynechococcus elongatus BP-1 PPO, SEQ ID NO: 2), wild type, MBP fusion (Q8DLV2 1-467): as the sequence (Q8DLV2 entry or part of it F360M) above, with M360F counted along it
Sequence of CyPPO10 (Thermosynechococcus elongatus BP-1 PPO, SEQ ID NO: 2) variant F360I, MBP fusion (Q8DLV2 entry or part of it F360I): as the sequence (Q8DLV2 entry or part of it F360M) above, with M360I counted along it

| SMILES | IC50 [1] [nM] | IC50 [2] [nM] | IC50 [3] [nM] | IC50 [4] [nM] | IC50 [5] [nM] | IC50 [6] [nM] | Vmax [7] [μM mg protein^−1 min^−1] | Vmax [8] [μM mg protein^−1 min^−1] | Vmax [9] [μM mg protein^−1 min^−1] | Vmax [10] [μM mg protein^−1 min^−1] |
| --- | --- | --- | --- | --- | --- | --- | --- | --- | --- | --- |
| C=CCOC(=O)C(C)(C)OC(=O)c1cc(-n2c(=O)cc(C(F)(F)F)n(C)c2=O)ccc1Cl [Butafenacil] | 1320 | 24 | 37 | 268 | 674 | 8 | – | – | – | – |
| C=Cc1c2[nH]c(c1C)Cc1[nH]c(c(CCC(=O)O)c1C)Cc1[nH]c(c(C)c1CCC(=O)O)Cc1[nH]c(c(C)c1C=C)C2 [Protoporphyrinogen IX] | – | – | – | – | – | – | 949.1 ± 64 | 134.4 ± 19 | 341.4 ± 14 | 57 ± 7 |
